Target: human mGlu4 receptor (Homo sapiens (Human), UniProt Q14833)
Test: Ca2+ mobilization in vitro assay on recombinant human mGlu4 expressed in HEK293 cells (mGlu4 PAM)
Format: cell-based
Conditions: for EC50: HEK293 cells stably expressing human mGlu4, L-AP4 added at EC20, read-out: EC50 (nM) mGlu4PAM; for Eff. (%): maximal response in % of the maximal stimulatory effect obtained with saturating concentrations of L-AP4
Experimental: Determination of EC50 Values Using a Ca2+ Mobilization In Vitro Assay on Recombinant Human mGlu4 Expressed in HEK293 Cells:
A monoclonal HEK-293 cell line stably transfected with a cDNA encoding for the human mGlu4 receptor was generated; for the work with mGlu4 Positive Allosteric Modulators (PAMs), a cell line with low receptor expression levels and low constitutive receptor activity was selected to allow the differentiation of agonistic versus PAM activity. Cells were cultured according to standard protocols (Freshney, 2000) in Dulbecco's Modified Eagle Medium with high glucose supplemented with 1 mM glutamine, 10% (vol/vol) heat-inactivated bovine calf serum, Penicillin/Streptomycin, 50 μg/ml hygromycin and 15 μg/ml blasticidin (all cell culture reagents and antibiotics from Invitrogen, Basel, Switzerland).
About 24 hrs before an experiment, 5×10^4 cells/well were seeded in poly-D-lysine coated, black/clear-bottomed 96-well plates. The cells were loaded with 2.5 μM Fluo-4AM in loading buffer (1×HBSS, 20 mM HEPES) for 1 hr at 37° C. and washed five times with loading buffer. The cells were transferred into a Functional Drug Screening System 7000 (Hamamatsu, Paris, France), and 11 half logarithmic serial dilutions of test compound at 37° C. were added and the cells were incubated for 10-30 min. with on-line recording of fluorescence. Following this pre-incubation step, the agonist (2S)-2-amino-4-phosphonobutanoic acid (L-AP4) was added to the cells at a concentration corresponding to EC20 with on-line recording of fluorescence; in order to account for day-to-day variations in the responsiveness of cells, the EC20 of L-AP4 was determined immediately ahead of each experiment by recording of a full dose-response curve of L-AP4.
Responses were measured as peak increase in fluorescence minus basal (i.e. fluorescence without addition of L-AP4), normalized to the maximal stimulatory effect obtained with saturating concentrations of L-AP4. Graphs were plotted with the % maximal stimulatory using XLfit, a curve fitting program that iteratively plots the data using Levenburg Marquardt algorithm. The single site competition analysis equation used was y=A+((B−A)/(1+((x/C)D))), where y is the % maximal stimulatory effect, A is the minimum y, B is the maximum y, C is the EC50, x is the log 10 of the concentration of the competing compound and D is the slope of the curve (the Hill Coefficient). From these curves the EC50 (drug concentration at which 50% of the maximal receptor activation was achieved), the Hill coefficient as well as the maximal response in % of the maximal stimulatory effect obtained with saturating concentrations of L-AP4 were calculated (see FIG. 1).
A depression of the signal observed after addition of the EC20 concentration of L-AP4 was indicative of an inhibitory activity of the test compound. • FIG. 1: Illustration of the experimental outline for mGlu4 PAM Ca2+ mobilization screening assay and the determination of EC50 and % Emax values.

Sequence of human mGlu4 receptor (Q14833 33-912): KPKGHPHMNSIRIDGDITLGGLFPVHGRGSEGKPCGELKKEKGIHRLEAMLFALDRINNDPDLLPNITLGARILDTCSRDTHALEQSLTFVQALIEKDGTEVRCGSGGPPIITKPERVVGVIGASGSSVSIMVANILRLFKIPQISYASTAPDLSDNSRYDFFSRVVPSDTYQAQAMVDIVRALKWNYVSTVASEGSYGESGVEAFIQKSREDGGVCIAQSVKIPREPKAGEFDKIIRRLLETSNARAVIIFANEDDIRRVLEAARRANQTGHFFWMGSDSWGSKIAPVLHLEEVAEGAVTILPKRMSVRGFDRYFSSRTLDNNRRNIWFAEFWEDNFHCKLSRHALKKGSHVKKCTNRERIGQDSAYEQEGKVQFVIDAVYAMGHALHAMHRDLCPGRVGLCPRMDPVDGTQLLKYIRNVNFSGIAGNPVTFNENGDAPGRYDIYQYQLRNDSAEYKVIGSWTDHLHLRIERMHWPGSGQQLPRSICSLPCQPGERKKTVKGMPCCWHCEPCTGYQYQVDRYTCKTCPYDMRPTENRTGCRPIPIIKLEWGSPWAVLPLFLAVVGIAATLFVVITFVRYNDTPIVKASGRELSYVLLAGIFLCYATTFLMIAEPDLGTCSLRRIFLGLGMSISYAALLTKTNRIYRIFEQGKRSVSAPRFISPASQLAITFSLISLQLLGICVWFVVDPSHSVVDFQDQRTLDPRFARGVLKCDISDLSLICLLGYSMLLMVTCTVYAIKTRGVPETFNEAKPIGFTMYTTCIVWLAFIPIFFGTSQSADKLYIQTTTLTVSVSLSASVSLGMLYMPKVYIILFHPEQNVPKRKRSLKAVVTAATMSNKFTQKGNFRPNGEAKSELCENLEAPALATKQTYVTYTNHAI

| EC50 | Eff. (%) | SMILES |
| --- | --- | --- |
| 38 nM | 152% | COc1cccc2c(=O)n(-c3c(F)cc(C#Cc4ccccc4)cc3F)c(=O)n(C)c12 [Example 70, 3-[2,6-Difluoro-4-(2-phenylethynyl)phenyl]-8-methoxy-1-methyl-quinazoline-2,4-dione] |
| 220 nM | 120% | Cn1c(=O)n(-c2ccc(C#Cc3ccccc3)cc2Cl)c(=O)c2ccc(Cl)cc21 [Example 4, 7-Chloro-3-[2-chloro-4-(2-phenylethynyl)phenyl]-1-methyl-quinazoline-2,4-dione] |
| 187 nM | 110% | O=c1c2cccc3c2n(c(=O)n1-c1ncc(C#Cc2ccccc2)cc1Cl)CC3 [Example 47, 2-(3-Chloro-5-(phenylethynyl)pyridin-2-yl)-5,6-dihydro-1H-pyrrolo[3,2,1-ij]quinazoline-1,3(2H)-dione] |
| 89 nM | 109% | Cn1c(=O)n(-c2c(F)cc(C#Cc3ccccc3)cc2F)c(=O)c2cccnc21 [Example 25, 3-(2,6-Difluoro-4-phenylethynyl-phenyl)-1-methyl-1H-pyrido[2,3-d]pyrimidine-2,4-dione] |
| 50 nM | 113% | Cn1cnc2c1c(=O)n(-c1c(F)cc(C#Cc3ccccc3)cc1F)c(=O)n2C [Example 69, 1-[2,6-Difluoro-4-(2-phenylethynyl)phenyl]-3,7-dimethyl-purine-2,6-dione] |
| 175 nM | 95% | Cn1c(=O)n(-c2ncc(C#Cc3ccccc3)cc2C(F)(F)F)c(=O)c2ccccc21 [Example 48, 1-Methyl-3-[5-(2-phenylethynyl)-3-(trifluoromethyl)-2-pyridyl]quinazoline-2,4-dione] |
| 108 nM | 108% | Cc1ccnc2c(=O)n(-c3c(F)cc(C#Cc4ccccc4)cc3F)c(=O)n(C)c12 [Example 38, 3-[2,6-Difluoro-4-(2-phenylethynyl)phenyl]-1,8-dimethyl-pyrido[3,2-d]pyrimidine-2,4-dione] |
| 52 nM | 78% | O=c1c2cccc3c2n(c(=O)n1-c1c(F)cc(C#Cc2ccccc2)cc1F)CC3 [Example 29, 2-(2,6-Difluoro-4-(phenylethynyl)phenyl)-5,6-dihydro-1H-pyrrolo[3,2,1-ij]quinazoline-1,3(2H)-dione] |
| 121 nM | 120% | CC(C)n1c(=O)n(-c2ncc(C#Cc3ccccc3)cc2F)c(=O)c2nn(C)cc21 [Example 56, 6-[3-Fluoro-5-(2-phenylethynyl)-2-pyridyl]-4-isopropyl-2-methyl-pyrazolo[4,3-d]pyrimidine-5,7-dione] |
| 155 nM | 89% | CC(C)n1c(=O)n(-c2c(F)cc(C#Cc3ccccc3)cc2F)c(=O)c2c1cnn2C [Example 36, 6-[2,6-Difluoro-4-(2-phenylethynyl)phenyl]-4-isopropyl-1-methyl-pyrazolo[4,3-d]pyrimidine-5,7-dione] |
| 17 nM | 107% | Cn1c(=O)n(-c2c(F)cc(C#Cc3ccccc3)cc2F)c(=O)c2nsnc21 [Example 39, 6-[2,6-Difluoro-4-(2-phenylethynyl)phenyl]-4-methyl-[1,2,5]thiadiazolo[3,4-d]pyrimidine-5,7-dione] |
| 137 nM | 145% | Cn1cc2c(=O)n(-c3c(F)cc(C#Cc4ccccc4)cc3F)c(=O)n(C)c2n1 [Example 62, 5-[2,6-Difluoro-4-(2-phenylethynyl)phenyl]-2,7-dimethyl-pyrazolo[3,4-d]pyrimidine-4,6-dione] |
| 26 nM | 146% | Cn1ncc2c(=O)n(-c3c(F)cc(C#Cc4ccccc4)cc3F)c(=O)n(C)c21 [Example 63, 5-[2,6-Difluoro-4-(2-phenylethynyl)phenyl]-1,7-dimethyl-pyrazolo[3,4-d]pyrimidine-4,6-dione] |
| 52 nM | 89% | CC(C)n1c(=O)n(-c2ccc(C#Cc3ccccc3)cc2Cl)c(=O)c2nccnc21 [Example 21, 3-[2-Chloro-4-(2-phenylethynyl)phenyl]-1-isopropyl-pteridine-2,4-dione] |
| 189 nM | 150% | CC(C)n1c(=O)n(-c2ncc(C#Cc3ccccc3)cc2Cl)c(=O)c2nn(C)cc21 [Example 60, 6-[3-Chloro-5-(2-phenylethynyl)-2-pyridyl]-4-isopropyl-2-methyl-pyrazolo[4,3-d]pyrimidine-5,7-dione] |
| 172 nM | 97% | CCn1c(=O)n(-c2ccc(C#Cc3ccccc3)cc2Cl)c(=O)c2ccccc21 [Example 14, 3-[2-Chloro-4-(2-phenylethynyl)phenyl]-1-ethyl-quinazoline-2,4-dione] |
| 150 nM | 102% | Cn1c(=O)n(-c2ccc(C#Cc3ccccc3)cc2Cl)c(=O)c2ccccc21 [Example 1, 3-[2-Chloro-4-(2-phenylethynyl)phenyl]-1-methyl-quinazoline-2,4-dione] |
| 121 nM | 120% | CC(C)n1c(=O)n(-c2c(F)cc(C#Cc3ccccc3)cc2F)c(=O)c2c[nH]nc21 [Example 64, 5-[2,6-Difluoro-4-(2-phenylethynyl)phenyl]-7-isopropyl-2H-pyrazolo[3,4-d]pyrimidine-4,6-dione] |
| 86 nM | 103% | O=c1c2ccccc2n(C2COC2)c(=O)n1-c1c(F)cc(C#Cc2cccnc2)cc1Cl [Example 71, 3-[2-Chloro-6-fluoro-4-[2-(3-pyridyl)ethynyl]phenyl]-1-(oxetan-3-yl)quinazoline-2,4-dione] |
| 179 nM | 104% | O=c1[nH]c2ncccc2c(=O)n1-c1ccc(C#Cc2ccccc2)cc1Cl [Example 6, 3-[2-Chloro-4-(2-phenylethynyl)phenyl]-1H-pyrido[2,3-d]pyrimidine-2,4-dione] |
| 154 nM | 197% | Cc1cccc2c(=O)n(-c3c(F)cc(C#Cc4cccnc4)cc3F)c(=O)n(C)c12 [Example 73, 3-[2,6-Difluoro-4-[2-(3-pyridyl)ethynyl]phenyl]-1,8-dimethyl-quinazoline-2,4-dione] |
| 302 nM | 111% | Cc1cccc2c(=O)n(-c3ncc(C#Cc4ccccc4)cc3F)c(=O)n(C)c12 [Example 49, 3-[3-Fluoro-5-(2-phenylethynyl)-2-pyridyl]-1,8-dimethyl-quinazoline-2,4-dione] |
| 167 nM | 88% | CC(C)n1c(=O)n(-c2ccc(C#Cc3cccnc3)cc2Cl)c(=O)c2nccnc21 [Example 22, 3-[2-Chloro-4-[2-(3-pyridyl)ethynyl]phenyl]-1-isopropyl-pteridine-2,4-dione] |
| 152 nM | 98% | O=c1[nH]c2ncncc2c(=O)n1-c1ccc(C#Cc2ccccc2)cc1Cl [Example 16, 3-[2-Chloro-4-(2-phenylethynyl)phenyl]-1H-pyrimido[4,5-d]pyrimidine-2,4-dione] |
| 399 nM | 180% | Cn1c(=O)n(-c2ccc(C#Cc3ccccc3)cc2Cl)c(=O)c2cnccc21 [Example 10, 3-[2-Chloro-4-(2-phenylethynyl)phenyl]-1-methyl-pyrido[4,3-d]pyrimidine-2,4-dione] |
| 115 nM | 108% | Cc1ccc2c(=O)n(-c3c(F)cc(C#Cc4ccccc4)cc3F)c(=O)n(C)c2c1 [Example 26, 3-[2,6-Difluoro-4-(2-phenylethynyl)phenyl]-1,7-dimethyl-quinazoline-2,4-dione] |
| 30 nM | 89% | CC(C)n1c(=O)n(-c2c(F)cc(C#Cc3ccccc3)cc2F)c(=O)c2nn(C)cc21 [Example 35, 6-[2,6-Difluoro-4-(2-phenylethynyl)phenyl]-4-isopropyl-2-methyl-pyrazolo[4,3-d]pyrimidine-5,7-dione] |
| 63 nM | 134% | CC(C)n1c(=O)n(-c2c(F)cc(C#Cc3ccccc3)cc2C(F)(F)F)c(=O)c2ccccc21 [Example 72, 3-[2-Fluoro-4-(2-phenylethynyl)-6-(trifluoromethyl)phenyl]-1-isopropyl-quinazoline-2,4-dione] |
| 74 nM | 85% | Cn1ncc2c1c(=O)n(-c1c(F)cc(C#Cc3ccccc3)cc1F)c(=O)n2C [Example 34, 6-[2,6-Difluoro-4-(2-phenylethynyl)phenyl]-1,4-dimethyl-pyrazolo[4,3-d]pyrimidine-5,7-dione] |

From patent US9676732B2, “Ethynyl derivatives” (Hoffmann-La Roche Inc., priority 2013, dated 2017)
